Like-named read-outs stand apart in the source and are kept apart here.
How the values were obtained:
α4β1 integrin = α4β1 integrin (Homo sapiens (Human), UniProt P05556+P13612); experiment: Integrin Adhesion Assay: Protocol 5 (VCAM-coated plate, RPMI-8866 cells with stable LOF mutation of the ITGB7 gene); type: cell-based
Procedure, shortened: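 RPMI-8866 B cells with CRISPR/Cas9 ITGB7 knockout (clonal, verified by flow cytometry) adhered to VCAM-coated wells for 1 h at 37° C in HEPES/NaCl buffer with 1 mM MnCl2, 0.1 mM CaCl2, 1% BSA, 1% DMSO. Bound cells quantified by CellTiter-Glo luminescence after washing; % inhibition versus DMSO and control, 4-parameter fit.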

α4β7 integrin = α4β7 integrin (Homo sapiens (Human), UniProt P13612+P26010); experiment: Integrin Adhesion Assay: Protocol 4 (MAdCAM-coated plate, RPMI-8866 cells with stable LOF mutation of the ITGB1 gene); type: cell-based
Procedure, shortened: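 RPMI-8866 cells with CRISPR/Cas9 knockout of ITGB1 (2×10^6/mL) were added to MAdCAM-coated wells with compound (1% DMSO) in HEPES/NaCl buffer with 1 mM MnCl2, 0.1 mM CaCl2 and 1% BSA, then incubated 1 h at 37 °C. After four washes, adherent cells were quantified by CellTiter-Glo luminescence. Percent inhibition versus DMSO and control compound was fitted to 4-parameter curves.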

[1] = RPMI-8866 cells with stable LOF mutation of the ITGB7 gene, read-out: Mean IC50 α4β1 KO^b
[2] = RPMI-8866 cells with stable LOF mutation of the ITGB1 gene, read-out: Mean IC50 α4β7 KO^a
[3] = Protocol 5, RPMI-8866 cells with LOF mutation of ITGB7, VCAM, read-out: Mean IC50 α4β1 KO
[4] = Protocol 4, RPMI-8866 cells with LOF mutation of ITGB1, MAdCAM, read-out: Mean IC50 α4β7 KO

Chain of α4β7 integrin (P13612 34-1032): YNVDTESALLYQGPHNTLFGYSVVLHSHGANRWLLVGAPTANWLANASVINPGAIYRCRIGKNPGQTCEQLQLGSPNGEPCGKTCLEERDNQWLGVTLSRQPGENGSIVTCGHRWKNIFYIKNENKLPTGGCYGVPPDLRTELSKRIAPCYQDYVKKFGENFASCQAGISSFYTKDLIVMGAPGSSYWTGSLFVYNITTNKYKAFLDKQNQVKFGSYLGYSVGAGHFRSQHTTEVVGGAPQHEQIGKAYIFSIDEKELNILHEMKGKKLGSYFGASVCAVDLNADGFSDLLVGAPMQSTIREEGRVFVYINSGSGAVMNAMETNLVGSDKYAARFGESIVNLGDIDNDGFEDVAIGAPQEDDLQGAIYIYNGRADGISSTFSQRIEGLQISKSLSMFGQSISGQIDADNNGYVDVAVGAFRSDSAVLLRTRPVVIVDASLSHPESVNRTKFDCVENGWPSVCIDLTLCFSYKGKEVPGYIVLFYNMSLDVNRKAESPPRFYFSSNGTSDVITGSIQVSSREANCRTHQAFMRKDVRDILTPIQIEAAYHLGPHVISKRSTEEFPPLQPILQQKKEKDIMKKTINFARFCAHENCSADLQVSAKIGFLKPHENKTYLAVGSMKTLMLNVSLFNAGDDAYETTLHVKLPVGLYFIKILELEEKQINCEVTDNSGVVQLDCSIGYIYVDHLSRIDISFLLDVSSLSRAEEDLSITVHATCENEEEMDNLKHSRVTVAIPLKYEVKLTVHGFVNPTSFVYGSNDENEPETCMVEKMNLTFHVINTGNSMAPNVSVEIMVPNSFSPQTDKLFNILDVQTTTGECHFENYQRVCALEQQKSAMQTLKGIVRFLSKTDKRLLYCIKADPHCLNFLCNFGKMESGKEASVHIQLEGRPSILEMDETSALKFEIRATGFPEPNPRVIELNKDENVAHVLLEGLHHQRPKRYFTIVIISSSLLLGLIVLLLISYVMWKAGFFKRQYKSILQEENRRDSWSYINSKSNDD
Chain of α4β7 integrin (P26010 20-798): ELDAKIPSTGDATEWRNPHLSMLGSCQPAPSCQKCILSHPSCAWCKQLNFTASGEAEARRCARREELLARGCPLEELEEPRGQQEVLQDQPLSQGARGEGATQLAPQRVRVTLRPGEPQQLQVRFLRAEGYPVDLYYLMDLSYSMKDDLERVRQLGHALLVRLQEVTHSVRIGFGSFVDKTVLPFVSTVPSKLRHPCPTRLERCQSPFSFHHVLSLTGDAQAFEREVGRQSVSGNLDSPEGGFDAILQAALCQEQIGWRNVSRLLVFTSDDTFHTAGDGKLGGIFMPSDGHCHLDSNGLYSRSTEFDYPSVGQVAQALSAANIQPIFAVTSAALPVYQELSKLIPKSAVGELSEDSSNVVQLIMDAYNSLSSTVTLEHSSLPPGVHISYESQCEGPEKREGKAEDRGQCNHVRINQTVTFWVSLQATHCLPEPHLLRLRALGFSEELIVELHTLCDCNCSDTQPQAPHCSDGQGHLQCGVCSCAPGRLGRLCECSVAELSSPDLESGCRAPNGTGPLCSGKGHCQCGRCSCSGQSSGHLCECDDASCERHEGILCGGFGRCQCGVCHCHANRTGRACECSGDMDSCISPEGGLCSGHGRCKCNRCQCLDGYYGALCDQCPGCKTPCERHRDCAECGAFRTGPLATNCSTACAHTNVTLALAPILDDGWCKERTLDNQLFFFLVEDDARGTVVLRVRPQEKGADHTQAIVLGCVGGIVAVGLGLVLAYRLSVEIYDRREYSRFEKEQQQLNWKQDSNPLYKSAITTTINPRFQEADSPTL
Chain of α4β1 integrin (P13612 34-1032): as the sequence (P13612 34-1032) above
Chain of α4β1 integrin (P05556 21-798): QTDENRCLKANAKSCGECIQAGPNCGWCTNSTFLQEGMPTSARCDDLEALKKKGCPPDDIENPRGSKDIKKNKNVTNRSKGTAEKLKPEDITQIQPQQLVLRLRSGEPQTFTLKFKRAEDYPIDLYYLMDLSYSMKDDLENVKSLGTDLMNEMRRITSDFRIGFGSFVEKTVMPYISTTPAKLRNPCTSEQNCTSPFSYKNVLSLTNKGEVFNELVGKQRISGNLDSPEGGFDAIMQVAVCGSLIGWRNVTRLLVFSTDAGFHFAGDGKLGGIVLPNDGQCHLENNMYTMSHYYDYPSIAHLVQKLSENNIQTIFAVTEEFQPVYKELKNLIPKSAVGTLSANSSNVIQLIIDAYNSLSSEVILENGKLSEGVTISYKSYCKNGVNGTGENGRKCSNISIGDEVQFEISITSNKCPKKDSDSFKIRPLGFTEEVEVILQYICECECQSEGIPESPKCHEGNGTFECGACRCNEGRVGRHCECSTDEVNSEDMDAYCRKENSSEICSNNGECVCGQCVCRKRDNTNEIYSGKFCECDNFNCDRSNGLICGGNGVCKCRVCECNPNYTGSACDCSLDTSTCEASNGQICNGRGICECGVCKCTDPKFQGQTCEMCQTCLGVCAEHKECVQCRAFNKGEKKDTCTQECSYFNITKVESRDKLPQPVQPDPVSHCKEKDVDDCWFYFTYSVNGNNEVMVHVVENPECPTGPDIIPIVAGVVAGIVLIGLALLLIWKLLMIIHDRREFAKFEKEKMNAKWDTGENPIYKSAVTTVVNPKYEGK

| Compound | IC50 (α4β1 integrin; [1]) [nM] | IC50 (α4β7 integrin; [2]) [nM] | IC50 (α4β1 integrin; [3]) [nM] | IC50 (α4β7 integrin; [4]) [nM] |
| --- | --- | --- | --- | --- |
| O=C(O)[C@H](Cc1cccc2c(-c3nccc4ccc(CCCN5CCCCC5)cc34)cccc12)NC(=O)C1(C(F)(F)F)CCN([C@H]2COCC2(F)F)CC1 [Compound 482] | 100 to 1000 | < 10 | – | – |
| COc1cc2c(c(OC)c1-c1cccc3c(C[C@H](NC(=O)C4(C(F)(F)F)CCN(CC(F)(F)F)CC4)C(=O)O)cccc13)CN(C)CC2 [Compound 474] | 100 to 1000 | < 10 | – | – |
| COc1ccc(CN2CCCCC2)c(OC)c1-c1cccc2c(C[C@H](NC(=O)c3c(C)cccc3F)C(=O)O)cccc12 [Compound 621] | 100 to 1000 | < 10 | – | – |
| COc1ccc(CN2CC[C@H](F)C2)cc1-c1cccc2c(C[C@H](NC(=O)C3(C(F)(F)F)CCN(CC(F)F)CC3)C(=O)O)cccc12 [Compound 943] | – | – | 10 to 100 | < 10 |
| COc1ccc(CN2CCC3(CCOC3)CC2)c(OC)c1-c1cccc2c(C[C@H](NC(=O)c3c(C)cccc3F)C(=O)O)cccc12 [Compound 655] | > 1000 | < 10 | – | – |
| O=C(O)[C@H](Cc1cccc2c(-c3cc(C(F)(F)F)c(CN4CCCCC4)cn3)cccc12)NC(=O)C1(C(F)(F)F)CCN(CC(F)(F)F)CC1 [Compound 891] | – | – | > 1000 | 100 to 1000 |
| CC(N1CCC(C(=O)N[C@@H](Cc2cccc3c(-c4c(C(F)(F)F)c5ccccc5n(C)c4=O)cccc23)C(=O)O)(C(F)(F)F)CC1)C(F)(F)F (stereo partly shown) [Compound 515] | > 1000 | 100 to 1000 | – | – |
| COc1cc(CN2CCC[C@H](F)C2)cc(C(F)(F)F)c1-c1cccc2c(C[C@H](NC(=O)C3(C(F)(F)F)CCN(CC(F)(F)F)CC3)C(=O)O)cccc12 [Compound 848] | – | – | > 1000 | 10 to 100 |
| COc1ccc(CN2CCOCC2)c(OC)c1-c1cccc2c(C[C@H](NC(=O)C3(C(F)(F)F)CCN(CC(F)(F)F)CC3)C(=O)O)cccc12 [Compound 785] | – | – | 100 to 1000 | 10 to 100 |
| COc1ccc2c(c1-c1cccc3c(C[C@H](NC(=O)c4c(C)cccc4F)C(=O)O)cccc13)CCN(CC(F)F)C2 [Compound 1003] | – | – | > 1000 | 10 to 100 |
| COc1cc(CN(C)C)cc(OC)c1-c1cccc2c(C[C@H](NC(=O)C3(C(F)(F)F)CCN(CC(F)(F)F)CC3)C(=O)O)cccc12 [Compound 478] | > 1000 | < 10 | – | – |
| CN(C)Cc1cccc2c(-c3cccc4c(C[C@H](NC(=O)C5(C(F)(F)F)CCN([C@@H]6CCOC6)CC5)C(=O)O)cccc34)nccc12 [Compound 592] | > 1000 | < 10 | – | – |
| Cc1cccc(F)c1C(=O)N[C@@H](Cc1cccc2c(-c3c(C(F)(F)F)c4cc(CCN5CCCC5)ccc4n(C)c3=O)cccc12)C(=O)O [Compound 713] | – | – | 100 to 1000 | < 10 |
| COc1ccc(CN(C)C)c(OC)c1-c1cccc2c(C[C@H](NC(=O)c3c(C)cccc3Cl)C(=O)O)cccc12 [Compound 613] | 100 to 1000 | < 10 | – | – |
| COc1cc(CN2CCCCC2)cc(C(F)(F)F)c1-c1cccc2c(C[C@H](NC(=O)C3(C(F)(F)F)CCN(CC(F)(F)F)CC3)C(=O)O)cccc12 [Compound 824] | – | – | > 1000 | < 10 |
| COc1cccc(CCN2CCC[C@@H](F)C2)c1-c1cccc2c(C[C@H](NC(=O)C3(C(F)(F)F)CCN(CC(F)F)CC3)C(=O)O)cccc12 [Compound 970] | – | – | 100 to 1000 | < 10 |
| Cn1c(=O)c(-c2cccc3c(C[C@H](NC(=O)C4(C(F)(F)F)CCN(C5CCOCC5C(F)(F)F)CC4)C(=O)O)cccc23)c(C(F)(F)F)c2ccccc21 (stereo partly shown) [Compound 511] | > 1000 | 10 to 100 | – | – |
| Cn1c(=O)c(-c2cccc3c(C[C@H](NC(=O)C4(C(F)(F)F)CCN(CC(F)F)CC4)C(=O)O)cccc23)c(C(F)(F)F)c2cc(CN3CCC(c4ccccc4)CC3)ccc21 [Compound 838] | – | – | 10 to 100 | < 10 |
| O=C(O)[C@H](Cc1cccc2c(-c3ccc(CN4CCCC(F)C4)c4ccncc34)cccc12)NC(=O)C1(C(F)(F)F)CCN(CC(F)(F)F)CC1 (stereo partly shown) [Compound 989] | – | – | > 1000 | 10 to 100 |
| CN1CCc2cc(-c3cccc4c(C[C@H](NC(=O)C5(C(F)(F)F)CCN(CC(F)(F)F)CC5)C(=O)O)cccc34)ncc2C1 [Compound 754] | – | – | > 1000 | 10 to 100 |
| COc1ccc(CN(C)C)c(OC)c1-c1cccc2c(C[C@H](NC(=O)c3c(C)cc(C(F)(F)F)cc3F)C(=O)O)cccc12 [Compound 603] | > 1000 | 10 to 100 | – | – |
| COc1cc(C(F)(F)F)cc(CN2CCCCC2)c1-c1cccc2c(C[C@H](NC(=O)C3(C(F)(F)F)CCN(CC(F)(F)F)CC3)C(=O)O)cccc12 [Compound 830] | – | – | > 1000 | 10 to 100 |

| Compound | IC50 (α4β1 integrin; [1]) [nM] | IC50 (α4β7 integrin; [2]) [nM] | IC50 (α4β1 integrin; [3]) [nM] | IC50 (α4β7 integrin; [4]) [nM] |
| --- | --- | --- | --- | --- |
| COc1ccc(CN(C)C)c(OC)c1-c1cccc2c(C[C@H](NC(=O)c3c(C)cc(C4CC(F)(F)C4)cc3F)C(=O)O)cccc12 [Compound 602] | > 1000 | < 10 | – | – |
| O=C(O)[C@H](Cc1cccc2c(-c3ncc(CN4CC5CC(C4)O5)c4ccccc34)cccc12)NC(=O)C1(C(F)(F)F)CCN(CC(F)(F)F)CC1 [Compound 867] | – | – | > 1000 | < 10 |
| CN(C)Cc1cccc2c(-c3cccc4c(C[C@H](NC(=O)C5(C(F)(F)F)CCN([C@H]6CCOC6)CC5)C(=O)O)cccc34)nccc12 [Compound 593] | 100 to 1000 | < 10 | – | – |
| CC[C@H]1CCCN1Cc1cnc(-c2cccc3c(C[C@H](NC(=O)C4(C(F)(F)F)CCN(CC(F)(F)F)CC4)C(=O)O)cccc23)c2ccccc12 [Compound 933] | – | – | 100 to 1000 | < 10 |
| COc1ccc2ccncc2c1-c1cccc2c(C[C@H](NC(=O)C3(C(F)(F)F)CCN(CC(F)(F)F)CC3)C(=O)O)cccc12 [Compound 523] | 100 to 1000 | < 10 | – | – |
| O=C(O)[C@H](Cc1cccc2c(-c3nccc4c(CN5CCCCC5)cccc34)cccc12)NC(=O)C1(C(F)(F)F)CCN([C@@H]2COCC2(F)F)CC1 [Compound 642] | > 1000 | < 10 | – | – |
| O=C(O)[C@H](Cc1cccc2c(-c3ncc(CN4CCC4)c4ccccc34)cccc12)NC(=O)C1(C(F)(F)F)CCN(CC(F)(F)F)CC1 [Compound 919] | – | – | > 1000 | < 10 |
| COc1cc(CN2CCC[C@@H](F)C2)cc(C(F)(F)F)c1-c1cccc2c(C[C@H](NC(=O)C3(C(F)(F)F)CCN(CC(F)(F)F)CC3)C(=O)O)cccc12 [Compound 849] | – | – | > 1000 | 10 to 100 |
| COc1ccc(CCN2CCCCC2)c(C(F)(F)F)c1-c1cccc2c(C[C@H](NC(=O)C3(C(F)(F)F)CCN(CC(F)(F)F)CC3)C(=O)O)cccc12 [Compound 727] | – | – | 10 to 100 | < 10 |
| COc1ccc(CCN2CCC(F)(F)CC2)c(C(F)(F)F)c1-c1cccc2c(C[C@H](NC(=O)C3(C(F)(F)F)CCN(CC(F)(F)F)CC3)C(=O)O)cccc12 [Compound 850] | – | – | 100 to 1000 | 10 to 100 |
| COc1ccc(CN2CCC(c3ccccc3)CC2)c(OC)c1-c1cccc2c(C[C@H](NC(=O)C3(C(F)(F)F)CCN(CC(F)(F)F)CC3)C(=O)O)cccc12 [Compound 807] | – | – | > 1000 | < 10 |
| O=C(O)[C@H](Cc1cccc2c(-c3ncc(CN4CC5(CC5)C4)c4ccccc34)cccc12)NC(=O)C1(C(F)(F)F)CCN(CC(F)F)CC1 [Compound 908] | – | – | 100 to 1000 | < 10 |
| COc1ccc(CN2CC(F)(F)C2)c(OC)c1-c1cccc2c(C[C@H](NC(=O)c3c(C)cccc3F)C(=O)O)cccc12 [Compound 627] | > 1000 | 10 to 100 | – | – |
| COc1ccc(CN2CCCC(C)(C)CC2)c(OC)c1-c1cccc2c(C[C@H](NC(=O)C3(C(F)(F)F)CCN(CC(F)(F)F)CC3)C(=O)O)cccc12 [Compound 812] | – | – | > 1000 | 10 to 100 |
| O=C(O)[C@H](Cc1cccc2c(-c3ncc(CN4CCCCC4)c4ccccc34)cccc12)NC(=O)C1(C(F)(F)F)CCN(CC2(C(F)(F)F)CC2)CC1 [Compound 683] | > 1000 | < 10 | – | – |
| Cc1cccc(F)c1C(=O)N[C@@H](Cc1cccc2c(-c3c(C(F)(F)F)c4cc(CN(C)C)ccc4n(C)c3=O)cccc12)C(=O)O [Compound 451] | 100 to 1000 | < 10 | – | – |
| Cn1c(=O)c(-c2cccc3c(C[C@H](NC(=O)c4c(F)cccc4F)C(=O)O)cccc23)c(C(F)(F)F)c2cc(C3CCCO3)ccc21 (stereo partly shown) [Compound 1046] | – | – | > 1000 | 100 to 1000 |
| CC1CCN(Cc2cnc(-c3cccc4c(C[C@H](NC(=O)C5(C(F)(F)F)CCN(CC(F)F)CC5)C(=O)O)cccc34)c3ccccc23)CCC1(F)F (stereo partly shown) [Compound 926] | – | – | > 1000 | < 10 |
| COc1cc(CCN2CCCCC2)cnc1-c1cccc2c(C[C@H](NC(=O)C3(C(F)(F)F)CCN(CC(F)(F)F)CC3)C(=O)O)cccc12 [Compound 983] | – | – | > 1000 | < 10 |
| O=C(O)[C@H](Cc1cccc2c(-c3nccc4c(CN5CC(F)C5)cccc34)cccc12)NC(=O)C1(C(F)(F)F)CCN(CC(F)(F)F)CC1 [Compound 556] | > 1000 | < 10 | – | – |
| CN(C)Cc1cccc2c(-c3cccc4c(C[C@H](NC(=O)C5(C(F)(F)F)CCN(C6COC6)CC5)C(=O)O)cccc34)nccc12 [Compound 591] | > 1000 | < 10 | – | – |
| COc1ccc(CN2CCC(F)(F)CC2)c(OC)c1-c1cccc2c(C[C@H](NC(=O)c3c(C)cccc3F)C(=O)O)cccc12 [Compound 634] | > 1000 | 10 to 100 | – | – |

Reference: US20250313535A1, “ALPHA 4 BETA 7 INTEGRIN MODULATORS AND USES THEREOF” (DICE MOLECULES SV, INC., priority 2022, published 2025)
